Results on 1 molecule are retold here after patent US20230125667A1, “NOVEL TDZD ANALOGS AS AGENTS THAT DELAY, PREVENT, OR REVERSE AGE-ASSOCIATED DISEASES AND AS ANTI-CANCER AND ANTILEUKEMIC AGENTS” (United States Government as represented by the Department …, priority 2020, published 2023).

The subject of experiment [1] is wild-type nematodes. Nature of the experiment: Lifespan of C. elegans. The experiment is classed as in vivo. The note with it: FIG. 8. Here is the method:
It was previously shown that several interventions that improve age-associated phenotypes also modulate lifespan (Ayyadevara et al. (2017) Antioxid Redox Signal. 27(17): 1383-1396; Ayyadevara et al. (2005) Aging Cell. 4(5): 257-271). The lifespan was assessed in C. elegans, either mock-treated or exposed to TDZD analogues. PNR-962 and BSK-179 extended the lifespan of wild-type nematodes to an identical degree, increasing the mean by roughly 25-30% (P<0.001; FIG. 8).
To obtain synchronized eggs for lifespan studies, worms were maintained for 2 generations, free of contamination and starvation. Healthy, well-fed adult worms from the 2nd generation were then lysed, and eggs placed on plates with appropriate doses of TDZD analogue PNR962, or DMSO vehicle alone (for a final concentration of 0.02% v/v DMSO). At the L4 larval stage, worms were transferred daily to fresh plates for 7 days, and thereafter on alternate days until all the worms are dead. C. elegans that moved spontaneously or responded to gentle prodding were scored as alive. For the mortality computation, worms that were lost for reasons other than natural death were censored. The methods described were adopted from previously described experimental procedures (Ayyadevara, et al. (2016) PIP3-binding proteins promote age-dependent protein aggregation and limit survival in C. elegans. Oncotarget, 7(31): 48870-48886; Bharill, et al. (2013) Extreme Depletion of PIP3 Accompanies the Increased Life Span and Stress Tolerance of PI3K-null C. elegans Mutants. Frontiers in Genetics, 4).

In experiment [2] the target is T1, GSK3β (Homo sapiens, UniProt P49841).
T1 construct: purchased BPS Bioscience
T1 sequence (P49841 whole entry): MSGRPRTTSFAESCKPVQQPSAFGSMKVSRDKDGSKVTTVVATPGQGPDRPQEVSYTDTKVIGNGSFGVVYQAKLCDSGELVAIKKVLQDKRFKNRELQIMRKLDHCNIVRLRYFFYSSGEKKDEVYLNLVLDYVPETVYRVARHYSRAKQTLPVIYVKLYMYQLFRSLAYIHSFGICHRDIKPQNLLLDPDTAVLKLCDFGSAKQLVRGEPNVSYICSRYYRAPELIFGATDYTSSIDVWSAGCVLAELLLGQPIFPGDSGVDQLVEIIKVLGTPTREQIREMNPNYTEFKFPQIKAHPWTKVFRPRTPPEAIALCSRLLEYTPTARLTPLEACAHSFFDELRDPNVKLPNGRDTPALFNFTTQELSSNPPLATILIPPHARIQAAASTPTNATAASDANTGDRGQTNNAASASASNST
The experiment in a line: GSK3β activity (kinase) assay in vitro. The experiment is classed as biochemical. The note with it: dose-response curves (FIG. 21). Here is the method: The GSK3β activity assay kit (BPS Bioscience) was used, with modification of the manufacturer's protocol. The assay was done in three replicates at three doses (0.01, 0.1, and 1 μM) of each inhibitor (TDZD8, PNR962) in a 96-well plate, using 1% DMSO (final solvent concentration) as the drug-free control. The kinase assay reaction was incubated for 45 minutes at 30′C and Kinase-Glo Max Assay (Promega) was then added and incubated for 15 minutes at room temperature. A negative control contained all the reagents except the test inhibitors and GSK3β enzyme and positive control contained all reagents except the test inhibitor. SpectraMax M3 (Molecular Devices, LLC) was used as a microplate reader. The luminescence negative control reading was used as 0% activity, positive control reading was used as 100% activity and kinase assay was based on the fact that all the reading in wells with test inhibitor, should lie between these values of negative control and positive controls. GSK3β inhibitions were calculated after subtracting negative control values from all the wells and graphs were generated using GraphPad Prism.
The best predicted inhibitors were synthesized, and screened in both human neuronal cells, and in C. elegans models of neurodegeneration. These compounds were also tested for their ability to inhibit GSK3β activity in vitro.

Experiment [3] concerns tau hyperphosphorylation. Nature of the experiment: Tau hyperphosphorylation in rat cortical cells. The note with it: FIG. 23. The experiment is classed as cell-based. How it is done:
Microtubule assembly involves stable tau binding to other proteins in the complex, including tubulin. Hyperphosphorylated tau is readily sequestered into aggregates and generates intracellular neurofibrillary tangles (“tau tangles”). […] The top drugs were tested for impact on tau hyperphosphorylation in rat cortical cells (FIG. 23).
Primary cultures were established from cerebral cortex of E18 rats; under serum-free conditions (Neurobasal/B27) these cultures contain ˜85% neurons, with the remainder comprising astrocytes (˜12% and microglia ˜3%). At the […], triplicate cultures were exposed to the test compounds at the indicated concentrations; a separate triplicate was exposed to vehicle (0.5% DMSO final concentration). After 24 h, cultures were washed once with ice-cold PBS and then scraped in RIPA buffer containing inhibitors of proteases and phosphatases. Lysates were centrifuged at 14,000 g at 4° C. for 7 min. Supernatants were removed and stored at −80° C. after removal of small aliquots for determination of protein concentration by BCA. Samples equilibrated for total protein were analyzed by Wes™ capillary-gel immunodetection (ProteinSimple) using the AT8 clone of anti-phosphoTau (Invitrogen MN 1020) or total Tau (ABclonal A0002). Detected antigen was calculated by peak area (automated peak fit), and values are reported as AT8 normalized to total Tau.

Turning to `O=c1sn(CCI)c(=O)n1Cc1ccccc1` [PNR-962], in experiment [1], the lifespan result is on record as “increased”. The “ability to inhibit GSK3β activity in vitro” value in experiment [2] was “markedly superior to TDZD8”. Besides, in experiment [3], the tau hyperphosphorylation result is “suppression of tau hyperphosphorylation”.
